Several values for one entry are separate records, joined by “and”; a condition that tells them apart may be missing. Identical values can stand only once. Toxic doses and inconclusive results are not listed. Rule as the data show it: active = T/C of 150% or more; inactive = T/C below 125%.
Tested on: L1210 leukemia ip in BDF1 mice, survival T/C
Experiment: NCI In Vivo Anticancer Drug Screen. Data for tumor model L1210 Leukemia (intraperitoneal) in B6D2F1 (BDF1) mice
Conditions: endpoint: mean survival time, higher = longer survival
Method in brief: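 Tumor was transplanted into mice, which were then dosed with test compound or vehicle alone. Survival was recorded for each group, and the treated figure was expressed relative to the control figure.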

[1] = dose: 100.0 mg/kg/injection, schedule: Q01DX009 (ip), vehicle: saline with Tween-80
[2] = dose: 200.0 mg/kg/injection, schedule: Q01DX009 (ip), vehicle: saline with Tween-80
[3] = dose: 400.0 mg/kg/injection, schedule: Q01DX009 (ip), vehicle: saline with Tween-80
[4] = dose: 100.0 mg/kg/injection, schedule: Q04DX003 (ip), vehicle: Klucel (hydroxypropylcellulose) (HPC)
[5] = dose: 200.0 mg/kg/injection, schedule: Q04DX003 (ip), vehicle: Klucel (hydroxypropylcellulose) (HPC)
[6] = dose: 400.0 mg/kg/injection, schedule: Q04DX003 (ip), vehicle: Klucel (hydroxypropylcellulose) (HPC)
[7] = dose: 100.0 mg/kg/injection, schedule: Q01DX001 (ip), vehicle: carboxymethylcellulose (CMC)
[8] = dose: 200.0 mg/kg/injection, schedule: Q01DX001 (ip), vehicle: carboxymethylcellulose (CMC)
[9] = dose: 100.0 mg/kg/injection, schedule: Q04DX003 (ip), vehicle: saline with Tween-80
[10] = dose: 200.0 mg/kg/injection, schedule: Q04DX003 (ip), vehicle: saline with Tween-80
[11] = dose: 400.0 mg/kg/injection, schedule: Q04DX003 (ip), vehicle: saline with Tween-80
[12] = dose: 100.0 mg/kg/injection, schedule: Q04DX002 (ip), vehicle: saline with Tween-80
[13] = dose: 200.0 mg/kg/injection, schedule: Q04DX002 (ip), vehicle: saline with Tween-80

Measured: T/C

CCC(C)(S(=O)(=O)CC)S(=O)(=O)CC
inactive: [1] 105 % of control | [2] 102 % of control | [3] 100 % of control

CN(C)c1ccc(C2SCSCS2)cc1
inactive: [4] 97 % of control | [5] 101 % of control | [6] 95 % of control

O=C(O)COc1c(Cl)cc(Cl)c2cccnc12
inactive: [7] 93 % of control | [8] 101 % of control

C=C(CCCCC)C(=O)/C=C/c1ccc(Cl)c(Cl)c1
inactive: dose: 12.5 mg/kg/injection, schedule: Q04DX002 (ip), vehicle: DMSO 101 % of control | dose: 25.0 mg/kg/injection, schedule: Q04DX002 (ip), vehicle: DMSO 114 % of control | dose: 50.0 mg/kg/injection, schedule: Q04DX002 (ip), vehicle: DMSO 104 % of control

N#CSCc1cc(Cl)c(CSC#N)c(Cl)c1Cl
inactive: dose: 75.0 mg/kg/injection, schedule: Q01DX009 (ip), vehicle: saline 89 % of control | dose: 150.0 mg/kg/injection, schedule: Q01DX009 (ip), vehicle: saline 96 % of control | dose: 300.0 mg/kg/injection, schedule: Q01DX009 (ip), vehicle: saline 91 % of control

O=S(=O)(NO)c1ccccc1
inactive: [1] 98 % of control | [9] 98 % of control | [2] 96 % of control | [10] 100 % of control | [3] 98 % of control | [11] 98 % of control

COc1ccc(NC(=O)Nc2cc(C(F)(F)F)ccc2Cl)cc1
inactive: [9] 88 % of control | [10] 91 % of control | [11] 86 % of control

O=C(O)Cn1cnc2cncnc21
inactive: [9] 118 % of control | [10] 104 % of control | [11] 102 % of control

CCCCCCC12CCC(O)C1(CCCCCCC(=O)O)O2 (stereo not given)
inactive: dose: 50.0 mg/kg/injection, schedule: Q04DX002 (ip), vehicle: saline 95 % of control | dose: 100.0 mg/kg/injection, schedule: Q04DX002 (ip), vehicle: saline 102 % of control | dose: 200.0 mg/kg/injection, schedule: Q04DX002 (ip), vehicle: saline 91 % of control

O=C(NC1CCCC1O)c1ccccc1 (stereo not given)
inactive: dose: 50.0 mg/kg/injection, schedule: Q01DX009 (ip), vehicle: saline with Tween-80 95 % of control | [1] 95 % of control | [2] 98 % of control

CCOC(=O)C1CCC(=O)N1C(=O)c1cc([N+](=O)[O-])cc([N+](=O)[O-])c1 (stereo not given)
inactive: [4] 97 % of control | [5] 92 % of control | [6] 94 % of control

CS(=O)(=O)Oc1ccc(S(=O)(=O)F)cc1Cl
inactive: dose: 100.0 mg/kg/injection, schedule: Q04DX002 (ip), vehicle: Klucel (hydroxypropylcellulose) (HPC) 102 % of control | dose: 200.0 mg/kg/injection, schedule: Q04DX002 (ip), vehicle: Klucel (hydroxypropylcellulose) (HPC) 94 % of control

Cc1cccc(CC23CC4CC(CC(C4)C2)C3)c1
inactive: [1] 91 % of control | [9] 102 % of control | [2] 90 % of control | [10] 100 % of control | [3] 95 % of control | [11] 98 % of control

CC1OC=CC(O)C1O (stereo not given)
inactive: dose: 50.0 mg/kg/injection, schedule: Q01DX001 (ip), vehicle: saline 94 % of control | dose: 100.0 mg/kg/injection, schedule: Q01DX001 (ip), vehicle: saline 100 % of control | dose: 200.0 mg/kg/injection, schedule: Q01DX001 (ip), vehicle: saline 105 % of control | dose: 400.0 mg/kg/injection, schedule: Q01DX001 (ip), vehicle: saline 97 % of control

CCOC(=O)C(=O)c1cn(C)c2ccccc12
inactive: dose: 50.0 mg/kg/injection, schedule: Q01DX001 (ip), vehicle: carboxymethylcellulose (CMC) 109 % of control | [7] 106 % of control | [8] 106 % of control | dose: 400.0 mg/kg/injection, schedule: Q01DX001 (ip), vehicle: carboxymethylcellulose (CMC) 101 % of control

CC(=O)Nc1ccc(/C=N/NC(N)=S)cc1
inactive: dose: 100.0 mg/kg/injection, schedule: Q04DX013 (ip), vehicle: carboxymethylcellulose (CMC) 94 % of control | dose: 200.0 mg/kg/injection, schedule: Q04DX013 (ip), vehicle: carboxymethylcellulose (CMC) 98 % of control

CCCN=Cc1ccccc1O.CCCN=Cc1ccccc1O.[Cu]
inactive: dose: 9.5 mg/kg/injection, schedule: Q01DX001 (ip), vehicle: other 94 % of control | dose: 19.0 mg/kg/injection, schedule: Q01DX001 (ip), vehicle: other 100 % of control | dose: 38.0 mg/kg/injection, schedule: Q01DX001 (ip), vehicle: other 97 % of control

CC(C)(C)NC(=O)CCl
inactive: dose: 100.0 mg/kg/injection, schedule: Q01DX001 (ip), vehicle: Klucel (hydroxypropylcellulose) (HPC) 93 % of control | dose: 200.0 mg/kg/injection, schedule: Q01DX001 (ip), vehicle: Klucel (hydroxypropylcellulose) (HPC) 106 % of control

COc1cc2c(c(OC)c1OC)-c1ccc(OC)c(=O)cc1C(NC(=S)Nc1ccccc1)CC2 (stereo not given)
inactive: dose: 62.5 mg/kg/injection, schedule: Q01DX009 (ip), vehicle: other 104 % of control | dose: 125.0 mg/kg/injection, schedule: Q01DX009 (ip), vehicle: other 98 % of control | dose: 250.0 mg/kg/injection, schedule: Q01DX009 (ip), vehicle: other 103 % of control

CN(C)/N=C/c1ccc(-c2ccccc2)cc1
inactive: [1] 95 % of control | [2] 111 % of control | [3] 102 % of control

C=CS(=O)CCCCCCC (stereo not given)
inactive: dose: 12.5 mg/kg/injection, schedule: Q04DX002 (ip), vehicle: saline with Tween-80 106 % of control | dose: 25.0 mg/kg/injection, schedule: Q04DX002 (ip), vehicle: saline with Tween-80 103 % of control | dose: 50.0 mg/kg/injection, schedule: Q04DX002 (ip), vehicle: saline with Tween-80 109 % of control

COc1cc(C(=O)NNC(=O)c2ccc(Cl)c(Cl)c2)cc(OC)c1OC
inactive: dose: 100.0 mg/kg/injection, schedule: Q01DX001 (ip), vehicle: saline with Tween-80 93 % of control | [1] 100 % of control and 89 % of control | [12] 93 % of control and 104 % of control | dose: 200.0 mg/kg/injection, schedule: Q01DX001 (ip), vehicle: saline with Tween-80 97 % of control | [2] 101 % of control and 86 % of control | [13] 101 % of control and 110 % of control | dose: 400.0 mg/kg/injection, schedule: Q01DX001 (ip), vehicle: saline with Tween-80 90 % of control | [3] 92 % of control and 97 % of control | dose: 400.0 mg/kg/injection, schedule: Q04DX002 (ip), vehicle: saline with Tween-80 102 % of control and 87 % of control

[O-][n+]1ccc(CCc2ccccc2)cc1
inactive: [12] 101 % of control | [13] 101 % of control

Cc1ccc(NC(=O)NC(C)C)c(C)c1
inactive: dose: 12.5 mg/kg/injection, schedule: Q04DX003 (ip), vehicle: saline with Tween-80 96 % of control | dose: 25.0 mg/kg/injection, schedule: Q04DX003 (ip), vehicle: saline with Tween-80 98 % of control | dose: 50.0 mg/kg/injection, schedule: Q04DX003 (ip), vehicle: saline with Tween-80 104 % of control | [11] 90 % of control

NC(=O)c1ccc[n+](CC(=O)NCc2ccc(Cl)cc2)c1
inactive: dose: 100.0 mg/kg/injection, schedule: Q04DX003 (ip), vehicle: saline 93 % of control

— PubChem BioAssay AID248 (DTP/NCI, 2004)
